Experimental data as given in publication PMC8466420, “Inflammatory and Cytotoxic Activities of Abietane Terpenoids from Nepeta bracteata Benth” (Molecules, 2021).

Experiments:
Format in all cases: cell-based
RAW 264.7 macrophages = experiment: RAW 264.7 macrophage viability test (MTT); conditions: compounds at 50 μM; for viability at 50 µM: Mus musculus, RAW264.7, 24 h, read-out: Cell Survival Rate (%) RAW 264.7 Macrophages
Method: The MTT colorimetric method was used to detect the effect of compounds 1–10 on the viability of RAW 264.7 macrophages. The RAW 264. 7 macrophages in the logarithmic growth phase were digested with trypsin to prepare a single-cell suspension, which was seeded in a 96-well plate at a density of 1 × 10^4 cells per well and cultured in a 5% CO2 incubator for 24 h at 37 °C, before discarding the supernatant. The blank control group was cultured with 10% FBS-containing DMEM, and the drug group was treated with aqueous solutions of compounds 1–10, with six replicate wells for each concentration. Incubation was continued in 5% CO2 at 37 °C. After 24 h of incubation, 10 μL of 5 mg/mL MTT was added to each well. The culture solution was removed after culturing for 4 h. Then, 100 μL of DMSO was added to each well, before shaking for 10 min to achieve complete dissolution. The optical density (OD) was measured at 492 nm using a microplate reader to calculate cell viability.

HCT-8 cells = experiment: Cytotoxicity test against HCT-8 cells (MTT); conditions: 24 h, means ± SD (n = 3), read-out: IC50 (μM) HCT-8 (cytotoxic activity)
Method: (§1) The cytotoxic activities of compounds 1–10 against HCT-8 cells were tested using the MTT colorimetric method. HCT-8 cells were cultivated on DMEM medium at 37 °C and 5% CO2. After diluting the DMEM medium, cells were seeded into 96-well sterile microplates (6 × 10^4 cells/well) and cultured with a series of various concentrations of tested compounds or adriamycin (positive control) for 24 h at 37 °C. After incubation, all compounds were tested at five concentrations (10−100 μM) for 1 h. Following this, the supernatant was removed, and all components were dissolved in 100% DMSO, at such an amount that there was a final DMSO concentration of 0.1% added to each well. The absorbance was measured using a microplate reader at a wavelength of 570 nm. […] The cell growth assay was repeated three times, and the IC50 values were calculated using Microsoft Excel software.

[1] = test system: nitric oxide (NO) production in lipopolysaccharide (LPS)-stimulated RAW 264.7 cells; experiment: Anti-inflammation assay: inhibition of NO production in LPS-stimulated RAW 264.7 macrophages; conditions: means ± SD of triplicate experiments
Method: The anti-inflammatory activity of the isolated compounds was evaluated in lipopolysaccharide-stimulated RAW 264.7 macrophages using the […]. The RAW 264.7 macrophages were seeded in 96-well plates at a density of 1 × 10^4 cells per well for 24 h, followed by treatment with different extracts of identical purity for another 24 h. The compounds were dissolved in dimethyl sulfoxide (DMSO) and diluted appropriately just before cell treatments. Cells were incubated with the extract at indicated concentrations, with DMSO not exceeding 0.1% in all experiments. The cells were cultured in DMEM with 10% FBS and antibiotics (100 U/mL penicillin and 100 µg/mL streptomycin) at 37 °C with 5% CO2. […].

[2] = Cytotoxicity test against HCT-8 cells (MTT); conditions: human, means ± SD (n = 3), read-out: IC50 (μM) HCT-8 (cytotoxic activity)
Method: as §1

[3] = Mus musculus, RAW264.7, 24 h treatment

Compound | Cell Survival Rate (%) RAW 264.7 Macrophages (RAW 264.7 macrophages; 24 h) [%] | IC50 (HCT-8 cells) [µM] | IC50 ([1]; 24 h treatment) [µM] | IC50 at 24 h [2] [µM] | IC50 [1, 3] [µM] | viability at 50 µM (RAW 264.7 macrophages) [%]
1-phenanthrenecarboxylic acid [Compound 8] | 99.12 ± 0.28 | > 50 | 37.5 ± 0.92 | – | – | –
COc1cccc2c1C(=O)c1c(O)c3c(c(O)c1C2=O)C[C@@](O)(C(=O)CO)C[C@@H]3O[C@H]1C[C@H](N)[C@H](O)[C@H](C)O1 [Adriamycin, reference compound] | – | – | – | 1.78 ± 0.14 | – | –
CC(=O)Oc1ccccc1C(=O)O [Aspirin, reference compound] | – | – | – | – | 15.9 ± 0.38 | –
CC(=O)O[C@H]1CCC(C)(C)[C@@H]2CCc3cc(C(C)C)ccc3[C@@]12CO [Compound 1, nepetabrate A] | – | – | – | > 50 | 38.2 ± 1.15 | 97.93 ± 0.26
CC(C)c1ccc2c(c1)[C@@H](O)C[C@H]1[C@@](C)(C=O)CCC[C@]21C [Compound 2, nepetabrate B] | – | – | – | 36.3 ± 1.1 | 19.2 ± 1.25 | 88.26 ± 0.32
CC1=C(CO)[C@@H]2C[C@H](O)c3cc(C(C)C)ccc3[C@@]2(C)CC1 [Compound 3, nepetabrate C] | – | – | – | > 50 | 22.3 ± 1.26 | 99.84 ± 0.21
C=C1[C@@H]2C[C@H](O)c3cc(C(C)C)ccc3[C@@]2(C)CC[C@@]1(C)O [Compound 4, nepetabrate D] | – | – | – | 41.4 ± 0.91 | 18.8 ± 0.75 | 92.21 ± 0.19
CC1CC(=O)OCCNC1=O (centres unmarked) [Compound 5, 6-methyl-1,4-oxazocane-5,8-dione] | – | – | – | > 50 | 18 ± 1.13 | 99.21 ± 0.15
CC(C)(O)c1ccc2c(c1)CC[C@H]1[C@@](C)(C(=O)O)CCC[C@]21C [Compound 6, angustanoic acid F] | – | – | – | > 50 | 36.2 ± 1.21 | 99.89 ± 0.13
CC(C)c1ccc2c(c1)[C@@H](O)C[C@H]1[C@@](C)(C(=O)O)CCC[C@]21C [Compound 7, 7a-hydroxycallitrisic acid] | – | – | – | > 50 | 37.1 ± 0.81 | 98.75 ± 0.45
CC(=O)c1ccc2c(c1)CC[C@H]1[C@@](C)(C(=O)O)CCC[C@]21C [Compound 9, angustanoic acid G] | – | – | – | > 50 | 42.3 ± 0.56 | 98.26 ± 0.18
CC(C)c1ccc2c(c1)CC[C@@H]1[C@](C)(CCC[C@]1(C)C(=O)O)O2 [Compound 10, jiadifenoic acid K] | – | – | – | > 50 | 46.3 ± 1.02 | 98.75 ± 0.2
